Experiments:
Assay in all cases: Pre-emergent herbicidal activity (Table A)
Type in all cases: in vivo
Cocklebur = conditions: Xanthium strumarium, pre-emergence, Cobu, 11.2 kg/ha, 10-14 days, read-out: herbicidal rating (% inhibition)
Procedure, shortened: (§1)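 Seeds or vegetative propagules were set on topsoil compacted to 0.95 to 1.27 cm below the pan rim, then covered with soil thoroughly mixed with a known amount of test compound in acetone or water carrier. Ratings follow a scale of percent inhibition per species.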

Quackgrass = conditions: pre-emergence, Rhqg, 11.2 kg/ha, 10-14 days, read-out: herbicidal rating (% inhibition)
Procedure, shortened: as §1

Pennsylvania Smartweed = conditions: pre-emergence, Pesw, 11.2 kg/ha, 10-14 days, read-out: herbicidal rating (% inhibition)
Procedure, shortened: as §1

Rhizome Johnsongrass = conditions: Sorghum halepense, pre-emergence, Rhjg, 11.2 kg/ha, 10-14 days, read-out: herbicidal rating (% inhibition)
Procedure, shortened: as §1

Barnyardgrass = conditions: Echinochloa crus-galli, pre-emergence, Bygr, 11.2 kg/ha, 10-14 days, read-out: herbicidal rating (% inhibition)
Procedure, shortened: as §1

Common Lambsquarters = conditions: Chenopodium album, pre-emergence, Colq, 11.2 kg/ha, 10-14 days, read-out: herbicidal rating (% inhibition)
Procedure, shortened: as §1

Downy Brome = conditions: Bromus tectorum, pre-emergence, Dobr, 11.2 kg/ha, 10-14 days, read-out: herbicidal rating (% inhibition)
Procedure, shortened: as §1

Morningglory = conditions: Ipomoea, pre-emergence, Mogl, 11.2 kg/ha, 10-14 days, read-out: herbicidal rating (% inhibition)
Procedure, shortened: as §1

Velvetleaf = conditions: Abutilon theophrasti, pre-emergence, Vele, 11.2 kg/ha, 10-14 days, read-out: herbicidal rating (% inhibition)
Procedure, shortened: as §1

Yellow Nutsedge = conditions: Cyperus, pre-emergence, Yens, 11.2 kg/ha, 10-14 days, read-out: herbicidal rating (% inhibition)
Procedure, shortened: as §1

Canada thistle = conditions: Cirsium arvense, pre-emergence, Cath, 11.2 kg/ha, 10-14 days, read-out: herbicidal rating (% inhibition)
Procedure, shortened: as §1

| SMILES | inhibition at 11200 g/ha (Cocklebur) [%] | inhibition at 11200 g/ha (Quackgrass) [%] | inhibition at 11200 g/ha (Pennsylvania Smartweed) [%] | inhibition at 11200 g/ha (Rhizome Johnsongrass) [%] | inhibition at 11200 g/ha (Barnyardgrass) [%] | inhibition at 11200 g/ha (Common Lambsquarters) [%] | inhibition at 11200 g/ha (Downy Brome) [%] | inhibition at 11200 g/ha (Morningglory) [%] | inhibition at 11200 g/ha (Velvetleaf) [%] | inhibition at 11200 g/ha (Yellow Nutsedge) [%] | inhibition at 11200 g/ha (Canada thistle) [%] |
| --- | --- | --- | --- | --- | --- | --- | --- | --- | --- | --- | --- |
| COC(=O)c1c(C(F)(F)F)nc(OC)c(C#N)c1CC(C)C [Compound 20, 3-pyridinecarboxylic acid, 5-cyano-6-methoxy-4-(2-methylpropyl)-2-(trifluoromethyl)-, methyl ester] | 0 to 24 | 75 to 100 | 25 to 49 | 75 to 100 | 75 to 100 | 75 to 100 | 75 to 100 | 50 to 74 | 0 to 24 | 0 to 24 | 0 to 24 |
| COC(=O)c1c(OC)nc(C(F)(F)F)c(CO)c1CC(C)C [Compound 40, 3-pyridinecarboxylic acid, 5-(hydroxymethyl)-2-methoxy-4-(2-methylpropyl)-6-(trifluoromethyl)-, methyl ester] | 0 to 24 | 75 to 100 | 75 to 100 | 0 to 24 | 75 to 100 | 75 to 100 | 75 to 100 | 0 to 24 | 25 to 49 | 0 to 24 | 0 to 24 |
| COC(=O)c1c(OC)nc(C(F)(F)F)c(C(=O)N2CCSCC2)c1CC(C)C [Compound 70, 3-pyridinecarboxylic acid, 2-methoxy-4-(2-methylpropyl)-5-(4-thiomorpholinylcarbonyl)-6-(trifluoromethyl)-, methyl ester] | 0 to 24 | 50 to 74 | 0 to 24 | 0 to 24 | 75 to 100 | 75 to 100 | 50 to 74 | 50 to 74 | 0 to 24 | 25 to 49 | 50 to 74 |
| COC(=O)c1c(C(F)(F)F)nc(OC)c(C(=O)n2ccnc2)c1CC(C)C [Compound 28, 3-pyridinecarboxylic acid, 6-methoxy-4-(2-methylpropyl)-5-(1H-imidazo1-1-ylcarbonyl)-2-(trifluoromethyl)-, methyl ester] | 75 to 100 | 0 to 24 | 50 to 74 | 0 to 24 | 75 to 100 | 75 to 100 | 75 to 100 | 50 to 74 | 25 to 49 | 0 to 24 | 0 to 24 |
| COC(=O)c1c(OC)nc(C(F)(F)F)c(C(=O)n2cccn2)c1CC(C)C [Compound 42, 3-pyridinecarboxylic acid, 2-methoxy-4-(2-methylpropyl)-5-(1H-pyrazo1-1-ylcarbonyl)-6-(trifluoromethyl)-, methyl ester] | 75 to 100 | 75 to 100 | 75 to 100 | 50 to 74 | 75 to 100 | 75 to 100 | 75 to 100 | 75 to 100 | 75 to 100 | 50 to 74 | 75 to 100 |
| CNC(=O)c1c(C(F)(F)F)nc(OC)c(C(=O)OC)c1CC(C)C [Compound 37, 3-pyridinecarboxylic acid, 2-methoxy-5-[(methylamino)carbonyl]-4-(2-methylpropyl)-6-(trifluoromethyl)-, methyl ester] | 0 to 24 | 0 to 24 | 0 to 24 | 0 to 24 | 0 to 24 | 75 to 100 | 0 to 24 | 0 to 24 | 0 to 24 | 0 to 24 | 0 to 24 |
| CCOC(=O)c1c(OCC)nc(C(F)(F)F)c(C(=O)OC)c1CC(C)C [Compound 3, 3,5-pyridinedicarboxylic acid, 2-ethoxy-4-(2-methylpropyl)-6-(trifluoromethyl)-, 3-ethyl 5-methyl ester, hydrate (1:0.4)] | 0 to 24 | 75 to 100 | 50 to 74 | 0 to 24 | 75 to 100 | 75 to 100 | 75 to 100 | 50 to 74 | 0 to 24 | 25 to 49 | 75 to 100 |
| CCCc1c(C(=O)OC)c(OC)nc(C(F)(F)F)c1C(=O)OC [Compound 91, 3,5-pyridinedicarboxylic acid, 2-methoxy-4-propy1-6-(trifluoromethyl)-, dimethyl ester] | 25 to 49 | 75 to 100 | 75 to 100 | 75 to 100 | 75 to 100 | 75 to 100 | 75 to 100 | 75 to 100 | 75 to 100 | 75 to 100 | 75 to 100 |
| COC(=O)c1c(OC)nc(C(F)(F)F)c(C(=O)OC)c1CC(C)C [Compound 2, 3,5-pyridinedicarboxylic acid, 2-methoxy-4-(2-methylpropyl)-6-(trifluoromethyl)-, dimethyl ester] | 75 to 100 | 75 to 100 | 75 to 100 | 75 to 100 | 75 to 100 | 75 to 100 | 75 to 100 | 75 to 100 | 75 to 100 | 75 to 100 | 75 to 100 |
| CCOC(=O)c1c(OC)nc(C(F)(F)Cl)c(C(=O)OC)c1CC(C)C [Compound 29, 3,5-pyridinedicarboxylic acid, 2-(chlorodifluoromethyl)-6-methoxy-4-(2-methylpropyl)-, 5-ethyl 3-methyl ester] | 0 to 24 | 75 to 100 | 75 to 100 | 25 to 49 | 75 to 100 | 75 to 100 | 75 to 100 | 75 to 100 | 75 to 100 | 25 to 49 | 0 to 24 |
| COc1nc(C(F)(F)F)c(C2=NCCS2)c(CC(C)C)c1C(=O)SC [Compound 54, 3-pyridinecarbothioic acid, 5-(4,5-dihydro-2-thiazolyl)-2-methoxy-4-(2-methylpropyl)-6-(trifluoromethyl)-, S-methyl ester] | 25 to 49 | 75 to 100 | 75 to 100 | 0 to 24 | 75 to 100 | 75 to 100 | 75 to 100 | 75 to 100 | 75 to 100 | 0 to 24 | 75 to 100 |
| COC(=O)c1c(OC)nc(C(F)(F)F)c(C2=NCC(C)S2)c1CC(C)C (stereo not shown) [Compound 64, 3-pyridinecarboxylic acid, 5-(4,5-dihydro-5-methy1-2-thiazolyl)-2-methoxy-4-(2-methylpropyl)-6-(trifluoromethyl)-, methyl ester] | 75 to 100 | 50 to 74 | 75 to 100 | 0 to 24 | 75 to 100 | 75 to 100 | 75 to 100 | 75 to 100 | 75 to 100 | 0 to 24 | 75 to 100 |
| CCSC=Nc1c(C(F)(F)F)nc(OC)c(C(=O)OC)c1CC(C)C [Compound 78, 3-pyridinecarboxylic acid, 5-[[(ethylthio)methylene]amino]-2-methoxy-4-(2-methylpropyl)-6-(trifluoromethyl)-, methyl ester] | 0 to 24 | 50 to 74 | 75 to 100 | 0 to 24 | 75 to 100 | 75 to 100 | 75 to 100 | 75 to 100 | 75 to 100 | 0 to 24 | 75 to 100 |
| CCOc1nc(C(F)(F)F)c(C(=O)n2cccn2)c(CC(C)C)c1C(=O)OC [Compound 49, 3-pyridinecarboxylic acid, 2-ethoxy-4-(2-methylpropyl)-5-(1H-pyrazo1-1-ylcarbonyl)-6-(trifluoromethyl)-, methyl ester] | 25 to 49 | 75 to 100 | 75 to 100 | 50 to 74 | 75 to 100 | 75 to 100 | 75 to 100 | 75 to 100 | 75 to 100 | 75 to 100 | 75 to 100 |

— patent publication US5391540A, “Substituted pyridine compounds” (Rohm and Haas Company, priority 1993, dated 1995)
